The target in this assay is T1, CXCR7 (Homo sapiens, UniProt P25106).
T1 construct: host or cells: CHO-K1 (PathHunter CHO-K1 CXCR7 b-arrestin cell line, stably transfected)
The assay can be described thus: PathHunter CHO-K1 CXCR7 b-arrestin recruitment assay (CXCR7 agonistic activity). It counts as cell-based. The note with it: PathHunter CHO-K1 CXCR7 b-arrestin cell line. In a few lines: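 Stable CHO-K1 line with C-terminally ProLink-tagged CXCR7 and β-arrestin 2–EA fusion; β-arrestin recruitment restores β-gal activity, read by chemiluminescence after 1 h RT detection. Cells seeded 24 h, starved in OPTIMEM 3–4 h, exposed to compounds 90 min at 37 °C in HBSS/HEPES/BSA. Geometric-mean EC50 from repeated measurements.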
For orientation: Arrestin recruitment assays detect the binding of arrestin to an activated receptor.

pEC50: −log10 of the molar value.

T1 sequence (P25106 whole entry): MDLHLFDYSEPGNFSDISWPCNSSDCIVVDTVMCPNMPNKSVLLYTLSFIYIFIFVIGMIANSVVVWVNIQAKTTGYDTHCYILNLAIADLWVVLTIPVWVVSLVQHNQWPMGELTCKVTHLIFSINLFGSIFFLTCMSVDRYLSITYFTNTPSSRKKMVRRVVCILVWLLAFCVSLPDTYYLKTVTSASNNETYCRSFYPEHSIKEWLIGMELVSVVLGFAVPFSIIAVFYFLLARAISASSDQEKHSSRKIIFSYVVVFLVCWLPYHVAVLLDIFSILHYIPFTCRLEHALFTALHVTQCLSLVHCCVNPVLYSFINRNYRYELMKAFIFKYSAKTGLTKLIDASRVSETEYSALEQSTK
T1 sequence (P32121 whole entry partner): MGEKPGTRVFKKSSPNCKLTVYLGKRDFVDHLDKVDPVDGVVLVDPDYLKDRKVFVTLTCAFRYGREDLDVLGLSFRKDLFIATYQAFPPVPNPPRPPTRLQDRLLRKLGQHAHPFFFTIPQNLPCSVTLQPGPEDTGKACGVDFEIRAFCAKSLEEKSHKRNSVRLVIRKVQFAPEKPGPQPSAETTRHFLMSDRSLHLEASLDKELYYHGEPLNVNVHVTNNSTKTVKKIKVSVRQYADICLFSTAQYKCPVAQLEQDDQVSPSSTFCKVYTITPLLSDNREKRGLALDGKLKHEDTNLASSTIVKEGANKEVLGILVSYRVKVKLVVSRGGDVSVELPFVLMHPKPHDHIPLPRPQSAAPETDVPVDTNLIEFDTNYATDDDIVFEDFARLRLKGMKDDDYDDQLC

With `CN(C)CCN(Cc1ccc(F)cn1)C(=O)CNc1cccc2c1CCN(CC1CC1)C2` [Example 267, 2-(2-Cyclopropylmethyl-1,2,3,4-tetrahydro-isoquinolin-5-ylamino)-N-(2-dimethylamino-ethyl)-N-(5-fluoro-pyridin-2-ylmethyl)-acetamide], the pEC50 was 7.48.
Regarding `CCN1CCc2cccc(NCC(=O)N(CCN(C)C)Cc3ccccc3C)c2C1` [compound 494, N-(2-Dimethylamino-ethyl)-2-(2-ethyl-1,2,3,4-tetrahydro-isoquinolin-8-ylamino)-N-(2-methyl-benzyl)-acetamide], the pEC50 was 7.55. This pEC50 and that of the compound before are within 0.2 log units of each other.
Take `CN(C)CCN(Cc1ccccc1C(F)(F)F)C(=O)CNc1cccc2c1CN(CC1CC1)CC2(C)C` [compound 199]: the pEC50 is 6.59.
In the case of `CN(C)CCN(Cc1ccccc1C(F)(F)F)C(=O)CNc1cccc2c1CN(CC(F)(F)F)CC2` [Example 558, N-(2-Dimethylamino-ethyl)-2-[2-(2,2,2-trifluoro-ethyl)-1,2,3,4-tetrahydro-isoquinolin-8-ylamino]-N-(2-trifluoromethyl-benzyl)-acetamide], the pEC50 was 7.23.
Next, `CC(CF)N(C)CCN(Cc1ccccc1C(F)(F)F)C(=O)CNc1cccc2c1CCN(CC1CC1)C2` (racemic) [compound 452]: 8.40; `Cc1cccc(CN(C(=O)/C=C/c2cccc3c2CCN(CC2CC2)C3)C2CC2)c1C` [compound 141]: 7.01.
Next, `CCN1CCc2c(/C=C/C(=O)N(Cc3ccccc3C(F)(F)F)C3CCN(C)CC3)cccc2C1` [compound 151, (E)-3-(2-Ethyl-1,2,3,4-tetrahydro-isoquinolin-5-yl)-N-(1-methyl-piperidin-4-yl)-N-(2-trifluoromethyl-benzyl)-acrylamide]: 7.47; `COCCN1CCc2c(CCC(=O)N(Cc3ccccc3C(F)(F)F)CC(O)COC)cccc2C1` (stereo not drawn) [Example 339, N-(2-Hydroxy-3-methoxy-propyl)-3-[2-(2-methoxy-ethyl)-1,2,3,4-tetrahydro-isoquinolin-5-yl]-N-(2-trifluoromethyl-benzyl)-propionamide]: 6.34.
Next, `NC(=O)CCN(Cc1ccccc1)C(=O)CNc1cccc2c1CCN(CC1CC1)C2` [Example 68, 3-{Benzyl-[2-(2-cyclopropylmethyl-1,2,3,4-tetrahydro-isoquinolin-5-ylamino)-acetyl]-amino}-propionamide]: 6.48; `CC(C1CC1)N1CCc2c(cccc2NCC(=O)N(CCN(C)C)Cc2ccccc2C(F)(F)F)C1` (stereo not drawn) [Example 357, 2-[2-(1-Cyclopropyl-ethyl)-1,2,3,4-tetrahydro-isoquinolin-5-ylamino]-N-(2-dimethylamino-ethyl)-N-(2-trifluoromethyl-benzyl)-acetamide]: 8.40; `CN(CCN(Cc1ccccc1C(F)(F)F)C(=O)CNc1cccc2c1CCN(CC1CC1)C2)C(=O)OC(C)(C)C` [Example 83, {2-[[2-(2-Cyclopropylmethyl-1,2,3,4-tetrahydro-isoquinolin-5-ylamino)-acetyl]-(2-trifluoromethyl-benzyl)-amino]-ethyl}-methyl-carbamic acid tert-butyl ester]: 7.06.
In turn, `O=C(CNc1cccc2c1CCN(CC1CC1)C2)N(CCC(F)(F)F)Cc1ccccc1C(F)(F)F` [Example 224, 2-(2-Cyclopropylmethyl-1,2,3,4-tetrahydro-isoquinolin-5-ylamino)-N-(2-trifluoromethyl-benzyl)-N-(3,3,3-trifluoro-propyl)-acetamide] had a pEC50 of 7.28.
For the compound `CC1c2cccc(NCC(=O)N(CCN(C)C)Cc3ccccc3C(F)(F)F)c2CCN1CC1CC1` (single isomer, unassigned) [Example 211a, (S)- or (R)-2-((2-(Cyclopropylmethyl)-1-methyl-1,2,3,4-tetrahydroisoquinolin-5-yl)amino)-N-(2-(dimethylamino)ethyl)-N-(2-(trifluoromethyl)benzyl)acetamide], the pEC50 was 9.00.
Next, `C#CCOC(=O)N1CCc2c(cccc2NCC(=O)N(CCNC)Cc2ncccc2C(F)(F)F)C1` [compound 421, 5-({[(2-Methylamino-ethyl)-(3-trifluoromethyl-pyridin-2-ylmethyl)-carbamoyl]-methyl}-amino)-3,4-dihydro-1H-isoquinoline-2-carboxylic acid prop-2-ynyl ester]: 7.54; `CCN1CCc2cccc(OCC(=O)N(CCN(C)C)Cc3ccccc3C(F)(F)F)c2C1` [compound 567, N-(2-Dimethylamino-ethyl)-2-(2-ethyl-1,2,3,4-tetrahydro-isoquinolin-8-yloxy)-N-(2-trifluoromethyl-benzyl)-acetamide]: 8.40.
In turn, `CN(C)CCN(Cc1ccccc1C(F)(F)F)C(=O)CNc1cccc2c1CCN(CC1CC1)C2=O` [Example 315, 2-(2-Cyclopropylmethyl-1-oxo-1,2,3,4-tetrahydro-isoquinolin-5-ylamino)-N-(2-dimethylamino-ethyl)-N-(2-trifluoromethyl-benzyl)-acetamide] showed a pEC50 of 8.30.
Next, `O=C(CNc1cccc2c1CN(CC1CC1)CC2)N(CCN1CCC(F)(F)C1)Cc1ccccc1C(F)(F)F` [compound 479]: 7.11.
Compound `O=C(CNc1cccc2c1CCN(CC1CC1)C2)N(CCN1CCC(F)(F)C1)Cc1ccccc1C(F)(F)F` [Example 282, 2-(2-Cyclopropylmethyl-1,2,3,4-tetrahydro-isoquinolin-5-ylamino)-N-[2-(3,3-difluoro-pyrrolidin-1-yl)-ethyl]-N-(2-trifluoromethyl-benzyl)-acetamide] had a pEC50 of 7.33. Compared with the last compound, the pEC50 is 0.22 log units higher.
For `CCOC(=O)CN(Cc1ccccc1)C(=O)CNc1cccc2c1CCN(CC1CC1)C2` [Example 71, {Benzyl-[2-(2-cyclopropylmethyl-1,2,3,4-tetrahydro-isoquinolin-5-ylamino)-acetyl]-amino}-acetic acid ethyl ester], the pEC50 is 6.49.
Regarding `CN(C)CCN(Cc1ccncc1Br)C(=O)CNc1cccc2c1CCN(CC1CC1)C2` [Example 239, N-(3-Bromo-pyridin-4-ylmethyl)-2-(2-cyclopropylmethyl-1,2,3,4-tetrahydro-isoquinolin-5-ylamino)-N-(2-dimethylamino-ethyl)-acetamide], the pEC50 was 7.64.
With `CNC(=O)N1CCc2cccc(NCC(=O)N(CCN(C)C)Cc3ccccc3C(F)(F)F)c2C1` [Example 547, 8-({[(2-Dimethylamino-ethyl)-(2-trifluoromethyl-benzyl)-carbamoyl]-methyl}-amino)-3,4-dihydro-1H-isoquinoline-2-carboxylic acid methylamide] the figure was 7.82; with `O=C(CNc1cccc2c1CCN(CC1CC1)C2)N(Cc1ccccc1C(F)(F)F)C[C@@H]1CCNC1` [compound 379], 8.52; with `Cc1cccc(CN(CCN(C)C)C(=O)CNc2cccc3c2CCN(CC2CC2)C3)n1` [Example 259, 2-(2-Cyclopropylmethyl-1,2,3,4-tetrahydro-isoquinolin-5-ylamino)-N-(2-dimethylamino-ethyl)-N-(6-methyl-pyridin-2-ylmethyl)-acetamide], 8.30.
In turn, `O=C(CNc1cccc2c1CN(CC1CC1)CC2)N(CCN1CCC(F)(F)C1)Cc1ncccc1C(F)(F)F` [compound 481, 2-(2-Cyclopropylmethyl-1,2,3,4-tetrahydro-isoquinolin-8-ylamino)-N-[2-(3,3-difluoro-pyrrolidin-1-yl)-ethyl]-N-(3-trifluoromethyl-pyridin-2-ylmethyl)-acetamide] had a pEC50 of 7.39. This pEC50 lies 0.91 log units lower than the previous one.

By pEC50 is commonly meant the negative decadic logarithm of the EC50, by convention in mol/L.

For the origin of these results see patent publication US9920010B2, “CXCR7 receptor modulators” (IDORSIA PHARMACEUTICALS LTD, priority 2013, dated 2018).
